Data set [1] is described as follows: DPPH radical scavenging activity. The conditions noted are these: substrate concentration 1 mg/mL (printed for EV peptides); 30 min, 517 nm. The method, then:
A modified DPPH scavenging assay was conducted following the method described by Shen et al.. 0.0023 g of DPPH was mixed with 100 mL of 95% absolute ethanol to prepare a 60 µmol/L DPPH radical working solution. The sample was then mixed with 60 µmol/L DPPH free radical working solution at a 1:1 (v/v) ratio, mixed thoroughly, and allowed to stand in the dark for 30 min. The mixture was then centrifuged at 4500 rpm for 10 min. The absorbance was measured at a wavelength of 517 nm and compared with an equivalent concentration of GSH. The DPPH radical scavenging rate was calculated using the following formula:(1) DPPH radical scavenging ratio % = 1−Aa−Ab/Ac×100% where Aa represents the absorbance value of EV, TW and YV peptides solution added to DPPH scavenging radical working solution; Ab denotes the absorbance value of the solution with 95% (v/v) absolute ethanol and the […] scavenging radical working solution; Ac is the absorbance value after mixing distilled water and DPPH in equal volumes of 1:1.

A short description of data set [2]: Oxygen radical absorbance capacity (ORAC) assay. The conditions noted are these: substrate concentration 1 mg/mL (printed for EV peptides). The method, then: ORAC assay was performed based on the technique of Simon et al., with minor modifications. First, in black 96-well plates, 25 µL of PBS buffer (75 mmol/L, pH 7.4), 25 µL of Trolox standard solutions (at concentrations of 6.25 µM, 12.5 µM, 25 µM, 50 µM), and the peptide solution were added at a 1:1 volume ratio. Then, the samples were incubated at 37 °C for 10 min. Subsequently, 150 µL of […] sodium fluorescein was added to all wells and incubated at 37 °C for 20 min. Following this, 25 µL of 6 mmol/L azobisisobutyramidine hydrochloride (AAPH) solution was quickly added to each well. Two control groups were established: one consisted of a black 96-well plate with free radicals (+AAPH), while the other group included a black 96-well plate without free radicals (−AAPH). Both plates were placed in a microplate reader and shaken for 5 s. The excitation wavelength was set to 485 ± 20 nm, and the emission wavelength was set to 530 ± 10 nm. The entire system was set at 37 °C, and the fluorescence intensity was measured every 2 min. […]
The measurement results were expressed as ORAC values using the following formula:ORAC value = [(AUCpeptide − AUCblank)/(AUtrolox − AUCblank)] × Ctrolox/Cpeptide(4) […]

Data set [3] can be described thus: ABTS radical scavenging activity. The conditions noted are these: 1 mg/mL; 6 min, 734 nm. How it is done:
ABTS scavenging radical determination was conducted following the procedure of Li et al. with slight modifications. A 7 mmol/L aqueous solution of ABTS and a 2.49 mmol/L aqueous solution of potassium persulfate were mixed in a 1:1 ratio. The mixture was allowed to stand in the dark at 4 °C for 12–16 h. The concentration was adjusted using 5 mmol/L PBS (pH 7.4) to ensure that the absorbance of the ABTS radical stock solution was 0.700 ± 0.002 at a wavelength of 734 nm. EV and TW peptide aqueous solutions (10 µL), each at a concentration of 1 mg/mL, were taken. A glutathione aqueous solution with the same substrate concentration was used as the control group. After adding the samples to a black 96-well plate, 190 µL of ABTS free radical working solution was added to each well. The absorbance at 734 nm was measured using a microplate reader after a 6 min reaction.
The ABTS clearance was calculated as follows:(2) ABTS radical scavenging rate % = 1−Aa−Ab/Ac×100% where Aa represents the sample; Ab represents the absorbance of the solution in which the ABTS working solution was substituted with 5 mmol/L PBS; Ac represents the absorbance of the blank group.

Data set [4] can be described thus: Transwell in vitro BBB model, apparent permeability. It is filed as in vitro ADME. The conditions noted are these: mouse, 100 µM in upper chamber, bEnd.3 monolayer, RP-HPLC of lower chamber. How it is done:
The method described by Han et al. was referenced and modified. Briefly, 500 µL of bEnd.3 cells at a density of 5 × 10^4 cells/mL were seeded in the upper chamber of Transwell (0.4 µm, 12-well, PET material), and 1.5 mL of DMEM was added to the lower chamber to ensure the upper and lower chambers were aligned. After cell adherence, the culture medium in the upper chamber was changed daily, while the culture medium in the lower chamber was changed every other day. Once the transendothelial electrical resistance (TEER) was > 200 Ω·cm^2, both the upper and lower chambers were replaced with serum-free DMEM. After 12 h, EV and TW peptides, solubilized in HBSS at a concentration of 100 µM, were added to the upper chamber. After 4 h, the samples were collected separately, and RP-HPLC detection, along with Origin 2021 mapping analysis, was performed. TEER and apparent permeability coefficient (Papp) were calculated as follows:TEER = (TEERsample − TEERcontrol) × Cell Culture Area(5) (6) Papp=∆C·V/∆t·C0·A(cm/s) where ΔC represents the concentration in the lower chamber (µM), V is the volume of the lower chamber (mL), Δt indicates the experimental time (s), C0 is the initial concentration in the upper chamber, and A is the membrane area of the Transwell (cm^2).

The nature of data set [5]: in vitro. The conditions noted are these: KM, mouse, plasma; for half-life at 166.7 µM: In vitro plasma half-life.
Description: The plasma half-life was evaluated utilizing KM mice (20 ± 2 g) obtained from Changsheng Biotechnology Co., Ltd. (Benxi, Liaoning, China). After the adaptation period, the mice were euthanized by cervical dislocation. Blood was collected from the heart and immediately transferred into an EP tube containing heparin sodium. After standing for 2 h, the plasma was separated by centrifugation at 4500 rpm at 4 °C for 15 min. A 500 µL aliquot of 500 µM peptide solution was added to 1 mL of blank plasma, mixed thoroughly by vortexing, and methanol was added in a 1:3 ratio. After vortexing for 1 min, the mixture was centrifuged at 12,000 rpm for 10 min, and the resulting supernatant was collected for RP-HPLC analysis.
Gradient elution was conducted with a mobile phase consisting of pure water with 0.1% TFA (mobile phase A) and acetonitrile containing 0.1% TFA (mobile phase B). The elution process for mobile phase B was as follows: [sequence]: 10−35%, [sequence]: 8−33%, [sequence]: 5−30%, [sequence]: 4−29%, TWLPLPR: 24−49%, TWLPYPR: 21−46%, TWLPRPR: 16−41%, TWLPKPR: 15−40%, YVPFPLP, YVPFPYP: 11–34%. This was performed for 25 min at a flow rate of 1 mL/min.
Data set [6] in a line: in vitro.
Description: Walnut peptides were dissolved in distilled water to prepare a 100 µM aqueous solution. The pH was adjusted to 2.0, and pepsin was added to simulate gastric juice digestion. After 1 and 2 h in a 37 °C water bath, 1 mL of the sample was taken and stored at 4 °C for subsequent use. The pH of the remaining solution was then adjusted to 7.0, and 5 mg/mL trypsin was added to simulate intestinal digestion. After 1 and 2 h in a 37 °C water bath, 1 mL samples were taken, filtered through a 0.22 µm pore size membrane, and analyzed via RP-HPLC.
(§1) Gradient elution was conducted with a mobile phase consisting of pure water with 0.1% TFA (mobile phase A) and acetonitrile containing 0.1% TFA (mobile phase B). […] This was performed for 25 min at a flow rate of 1 mL/min.
A short description of a further data set: in vivo. The settings on record: C57/BJ, mouse, po.
Another data set relates to HT22 cells. It is filed as cell-based. The conditions noted are these: mouse, 24 h, 100 µM. The method, then: Mouse brain microvascular endothelial cells (bEnd.3) and mouse hippocampal neuron cells (HT22) were purchased from Zhong Qiao Xin Zhou Biological Technology Ltd. (Shanghai, China). Cells were cultured in DMEM (Cat # 11965092, Gibco, New York, USA) supplemented with 1% (v/v) penicillin/streptomycin (MA0110, MeilunBio, Dalian, China) and 10% (v/v) fetal bovine serum (C04001-500, Vivacell, Shanghai, China) in a 5% CO2 humidified incubator at 37 °C, and passaged every 2 days. When cell confluence reached 85–90%, cells were seeded into 6/12 well plates at a density of 1 × 10^5 cells/mL. Once the confluence reached 85–90% again, the cells were cultured in H2O2 medium at varying concentrations for 2 h as a model group. Cell viability was assessed using MTT at 0.1 mg/mL, and the optimal H2O2 concentration was determined when the cell viability approached 50%.
When cell confluence reached 80–90%, they were incubated with 100 µM EV peptides and TW peptides, respectively, for 24 h, followed by injury with 800 µM H2O2 for 2 h to observe the protective effect of the peptides. Among them, the model group was directly injured after 24 h of incubation with DMEM.

The subject of a further data set is in vitro BBB model. The settings on record: cited from earlier work.
Details of data set [7]: method as in PMID 22934681. The conditions noted are these: cited from earlier work.
On the set-up of data set [8]: method as in PMID 29463072. The conditions noted are these: cited from earlier work.

By Papp A→B is commonly meant how fast a substance crosses the layer from the apical side. The amount remaining is the share of the starting amount still present when the sample was taken. Usually half-life stands for the time in which the quantity being followed falls by half. The Papp is a coefficient for how fast a substance crosses the barrier.

Values joined by “and” are separate entries in the source; they are usually repeats but may differ in a detail not shown here. Equal entries are not always repeated. Where two headings read alike, the source gives them in different places. Ends that are not written are not given here. A value given as a limit tells only on which side of the number the result lay.

Description for in vivo: Six C57/BJ mice were randomly selected, and the peptides [sequence] and [sequence] were administered via gavage, respectively. After 10 h, the mice were euthanized by cervical dislocation, and the brains were harvested. For analysis, 3 mL of normal saline was added to each gram of brain tissue, which was then homogenized. The sample was diluted in a ratio of 1:3 with methanol solution, mixed thoroughly, and centrifuged at 12,000 rpm for 10 min. The resulting supernatant was collected for RP-HPLC analysis.
as §1

Regarding `N[C@@H](CCC(=O)N[C@@H](CS)C(=O)NCC(=O)O)C(=O)O` [GSH, glutathione], the “DPPH radical scavenging rate” value in [1] is 70.98 ± 1.09% and 70 ± 1.09%. Also, the ORAC value in data set [2] is given as 1003.3 ± 18.6 µmol TE/g. Besides, in data set [3], the “ABTS radical scavenging rate” value came out at 73.20 ± 2.54%.

In the case of EVSGPGKSPN [EVSGPGKSPN], the Papp A→B at 4 h, 100 µM in [4] came to 1.36 ×10⁻⁶ cm/s.

On to EVSGPGLSPN [EVSGPGLSPN], for which, in “in vitro [5]”, the metabolised at 48 h, 167 µM came to 2.23%; the fraction remaining at 1 h, 167 µM was 99.75 ± 0.35%; the fraction remaining at 2 h, 167 µM amounted to 99 ± 0.75%; the fraction remaining at 4 h, 167 µM came out at 98.13 ± 0.06%. In the data set “in vitro [5]”, the amount remaining at 8 h, 167 µM came out at 97.86 ± 0.49%; the amount remaining at 12 h, 167 µM was 96.86 ± 0.5%; the fraction remaining at 24 h, 167 µM is 95.62 ± 0.64%; the share remaining at 36 h, 167 µM amounted to 94.96 ± 0.36%. Also, in the data set “in vitro [5]”, the amount remaining at 48 h, 167 µM was found to be 94.77 ± 0.64% and the half-life at 166.7 µM is greater than 48 h. Further, in data set [4], the apparent permeability coefficient (Papp) at 4 h, 100 µM was 3.78 ×10⁻⁶ cm/s. Further, the recovery at 100 µM in the data set “in vitro [6]” stood at 19.5 ± 3.33%. The same compound came in with a tissue level at time at 10 h in the data set “in vivo” of 250 ± 110 ng/g. In addition, the “Cell viability (MTT)” value in the data set with HT22 cells was determined as 78.63 ± 0.86%.

For the compound EVSGPGYSPN [EVSGPGYSPN], in “in vitro [5]”, the amount remaining at 1 h, 167 µM was found to be 96.64 ± 0.53%; the share remaining at 2 h, 167 µM stood at 92.42 ± 0.74%; the share remaining at 4 h, 167 µM is 80.5 ± 0.65%; the fraction remaining at 8 h, 167 µM came out at 58.64 ± 0.52%. In “in vitro [5]”, this compound displayed an amount remaining at 12 h, 167 µM of 51 ± 0.64%; a fraction remaining at 24 h, 167 µM of 24.3 ± 1.94%; an amount remaining at 36 h, 167 µM of 0%; an amount remaining at 48 h, 167 µM of 0%. The compound further yielded a half-life at 166.7 µM in the data set “in vitro [5]” greater than 12 h. Also, in data set [4], the Papp at 4 h, 100 µM worked out at 8.1 ×10⁻⁶ cm/s. The recovery at 100 µM in the data set “in vitro [6]” turned out to be 13.99 ± 0.02%. Moreover, the tissue level at time at 10 h in the data set “in vivo” was 1250 ± 910 ng/g. The “Cell viability (MTT)” value in the data set on HT22 cells is listed as 86.88 ± 3.18%.

With Gly-Sar, the Apparent permeability in the data set with in vitro BBB model is 7.60 ± 1.29 µL/g/min.

Regarding H-Tyr-D-Ala-Gly-MePhe-Gly-ol, the Plasma half-life in data set [7] (embedded and delivered with GSH-PEG liposomes) was 6.9 ± 2.3 h; in data set [7] (free peptide), 0.153 ± 0.035 h.

As to TWLPKPR [TWLPKPR], in data set [4], the Papp A→B at 4 h, 100 µM was 3.45 ×10⁻⁶ cm/s.

Turning to TWLPLPR [TWLPLPR], the Papp A→B at 4 h, 100 µM in data set [4] stood at 6.85 ×10⁻⁶ cm/s.

Turning to TWLPYPR [TWLPYPR], in data set [4], the Papp A→B at 4 h, 100 µM is 7.06 ×10⁻⁶ cm/s.

Take YVPFPLP [YVPFPLP]: the Papp A→B at 4 h, 100 µM in data set [4] is 0.999 ×10⁻⁶ cm/s.

As for YVPFPYP [YVPFPYP], in [4], the apparent permeability coefficient (Papp) at 4 h, 100 µM was 3.62 ×10⁻⁶ cm/s.

As to eveltivir, the “Maximum concentration in the brain” value in [8] was 46.5 ± 3.5 ng/g.

Values taken from publication PMC12610161, “Structural Engineering of Tyrosine-Based Neuroprotective Peptides: A New Strategy for Efficient Blood–Brain Barrier Penetration” (Foods, 2025).
